Measurements from ChEMBL document CHEMBL5726197, “Oxoazetidine derivatives, process for the preparation thereof and use thereof in human medicine and in cosmetics” (2017).
pEC50: −log10 of the molar value.

Key:
Melanocortin receptor 4 = Melanocortin receptor 4 (Homo sapiens, UniProt P32245); assay: (§1) Transactivation Assay: In the presence of an activator (agonist), the melanocortin receptor will activate the cAMP pathway which, via the CRE-Luc vector, will result in the synthesis of luciferase. After the addition of a lysis buffer containing a luminescent substrate for luciferase, it will be possible to measure the luminescence proportional to the degree of activation or of inhibition of the receptor. The products are solubilized at 10 mM in DMSO. They are tested in the form of dose-response at a final DMSO concentration of 0.1%. The range comprising 10 points and one zero begins at 10 μM with 4-fold dilutions. For testing agonists, the products are tested alone. For determining the behaviour of antagonists, the products of interest are tested in the presence of 1 nM NDP-MSH (reference agonist). The cells are seeded at a rate of 5000 cells per well (384 well plate) in serum-free DMEM medium, and incubated overnight at 37° C., 5% CO2.The products and the reference ligand (NDP-MSH) are added the following day, and the plates are again incubated for 6 h at 37° C., 5% CO2. After the addition of lysis buffer containing luciferin, the plates are read on a Top-Count instrument. The results are standardized as % activity using the 100% (cells+NDP-MSH at 10 nM) and 0% (cells alone) controls. An EC50 is calculated for each product using the XLFit software. The results are given in nM. […]
Melanocortin receptor 4, sequence (P32245 whole entry): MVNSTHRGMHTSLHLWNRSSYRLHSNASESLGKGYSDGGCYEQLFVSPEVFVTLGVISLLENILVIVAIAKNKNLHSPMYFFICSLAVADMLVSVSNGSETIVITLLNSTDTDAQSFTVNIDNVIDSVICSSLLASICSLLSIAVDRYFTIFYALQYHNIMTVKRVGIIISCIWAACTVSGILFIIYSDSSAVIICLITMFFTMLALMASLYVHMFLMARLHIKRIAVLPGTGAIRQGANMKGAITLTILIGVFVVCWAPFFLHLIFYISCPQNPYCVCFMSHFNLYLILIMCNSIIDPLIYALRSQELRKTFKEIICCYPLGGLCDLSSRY

[1] = target: Melanocyte-stimulating hormone receptor (Homo sapiens, UniProt Q01726); assay: as §1
Melanocyte-stimulating hormone receptor, sequence (Q01726 whole entry): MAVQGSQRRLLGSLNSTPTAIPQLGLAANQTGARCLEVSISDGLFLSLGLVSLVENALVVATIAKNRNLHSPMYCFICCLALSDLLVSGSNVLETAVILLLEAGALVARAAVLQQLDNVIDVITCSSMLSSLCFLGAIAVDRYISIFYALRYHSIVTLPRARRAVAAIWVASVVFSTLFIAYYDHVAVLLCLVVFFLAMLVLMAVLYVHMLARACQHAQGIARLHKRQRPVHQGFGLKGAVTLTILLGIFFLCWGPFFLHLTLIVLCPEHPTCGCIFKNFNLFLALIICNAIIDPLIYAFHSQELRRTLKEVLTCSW

pEC50 (Melanocortin receptor 4): 7.52
pEC50 [1]: 7.22
SMILES: CCCCCC1(c2ccccc2OC)CN(C(=O)[C@@H](Cc2ccc(OC)cc2)NC(=O)CCc2c[nH]cn2)C1
